Measured values: patent US6407136B1, “1,4-dithiin and 1,4-dithiepin-1,1,4,4, tetroxide derivatives useful as antagonists of the human galanin receptor” (Ortho-McNeil Pharmaceutical, Inc., priority 1999, dated 2002)
Where two headings read alike, the source gives them in different places.

Assays:
[1] = biological target: T1, hGALR-1 contained in membranes from human Bowes melanoma cells (Homo sapiens, UniProt P47211); assay: Human Galanin-1 Receptor Binding Assay (SPA, 125I human galanin); conditions: inhibition of 125I human galanin binding
T1 construct: hGALR-1 that is contained in membranes from human Bowes melanoma cells; endogenous in cells; host or cells: human Bowes melanoma cells (membranes)
T1 sequence (P47211 1-349): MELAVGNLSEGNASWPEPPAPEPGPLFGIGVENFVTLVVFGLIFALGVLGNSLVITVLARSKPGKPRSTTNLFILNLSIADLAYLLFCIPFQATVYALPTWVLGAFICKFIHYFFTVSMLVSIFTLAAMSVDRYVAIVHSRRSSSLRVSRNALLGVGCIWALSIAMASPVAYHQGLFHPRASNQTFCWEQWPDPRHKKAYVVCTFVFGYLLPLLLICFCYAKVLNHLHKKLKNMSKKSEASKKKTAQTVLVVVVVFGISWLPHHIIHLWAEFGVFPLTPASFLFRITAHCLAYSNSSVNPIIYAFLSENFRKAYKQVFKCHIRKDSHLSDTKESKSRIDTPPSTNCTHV
Protocol: Human Galanin-1 Receptor Binding Assay
This assay determines the concentration (IC50) of a test compound which prevents 50% of galanin from binding to the hGALR-1 that is contained in membranes from human Bowes melanoma cells bound to wheat germ agglutinin conjugated Scintillation Proximity Assay (SPA) beads. The IC50 value is obtained by measuring the effect of half log increment dilutions of the test compound in duplicate using a 96-well plate (eight-rows, 12-columns).
The SPA beads (500 mg) were dissolved in 12.5 mL of assay buffer composed of 20 mM DMSO-HEPES (pH 7.4), 0.1% bovine serum albumin, 2 mM MgCl2, 2 mM CaCl2, and protease inhibitors. Enough of this suspension for five plates (25 μL×5×96 wells=12000 μL) was dispensed into a 50 mL sterile Falcon tube. The amount of membranes required for five plates was then added (50 μg×5×96 wells), followed by 32.5 mL of 30% DMSO-HEPES buffer. The mixture was placed on a rotator and agitated for 0.5 hours and the non-specific binding sites on the beads were blocked by the addition of 5% [final] fetal bovine serum. Each well of the 96-well plate received 100 μL of this mixture.
To the control column (column 12) rows A and B was added 3.75 μL of a 300 μM solution of galantide in 30% DMSO-HEPES buffer, to rows C and D was added 3.75 μL of 30% DMSO-HEPES buffer and to rows E and F was added 3.75 μL of a 300 μM solution of galanin in 30% DMSO-HEPES buffer. In columns 1 through 11 were added solutions of the test compound in 30% DMSO-HEPES buffer starting at 30 μM and decreasing in concentration in half-log dilutions. A solution of radioactive ^125I human galanin (46.25 μL), prepared from 25 micro Curies of ^125I human galanin (2000 ci/mmol) and 500 μL of assay buffer, was added to each well. The plate was sealed with adhesive paper and incubated for 16 hr at room temperature before the quench-corrected bound radioactivity was measured in a Topcount® apparatus. For each dilution, the % inhibition of galanin binding was calculated as follows:
Total binding (T)=Mean counts/minute (cpm) in row C and D in column 12 Non-specific binding (NSB)=Mean cpm in row E and F in column 12 Total specific binding (TS)=T−NSB
net cpm in each well (N)=C−NSB
The IC50 values for each compound were calculated from the non-linear regression curve of the data using Prism® graphics software.

Rat Galanin-1 Receptor = biological target: T2, Rat Galanin-1 Receptor (Rattus norvegicus, UniProt Q62805); assay: Rat Galanin-1 Receptor Mediated Inhibition of Acetylcholine Release from Rat Brain Cortical Slices (superfusion); conditions: for Acetycholine Secretion, Stimulated / Acetycholine Secretion, Stimulated (% change): K+-evoked; for Acetycholine Secretion, Stimulated (% change) / Acetycholine Secretion, Basal (% change): percent in brackets, versus control
T2 sequence (Q62805 1-346): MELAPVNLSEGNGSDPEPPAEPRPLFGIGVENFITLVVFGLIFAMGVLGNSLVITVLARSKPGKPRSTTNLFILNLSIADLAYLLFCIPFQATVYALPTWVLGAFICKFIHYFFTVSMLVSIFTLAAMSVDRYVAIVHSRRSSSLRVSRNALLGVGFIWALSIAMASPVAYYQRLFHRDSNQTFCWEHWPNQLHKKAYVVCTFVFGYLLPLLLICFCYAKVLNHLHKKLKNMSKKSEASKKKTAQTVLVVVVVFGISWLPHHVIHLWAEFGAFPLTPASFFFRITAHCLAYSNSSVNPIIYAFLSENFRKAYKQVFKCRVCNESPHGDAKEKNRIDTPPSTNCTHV
Protocol: Rat brain cerebrocortical tissues were chopped into slices of 300×300×3,000 mm using a Mcllwain tissue chopper. […] After incubation, the slices were washed three times with ice-cold physiological solution and resuspended in 6 ml of cold solution. Equal aliquots of the tissue suspension were placed in each of 6 parallel superfusion chambers (Hugo Sachs Elektronik, March-Hugstetten, Germany). A circular piece of nylon mesh (pore size 250 um) was placed just below each chamber outlet in order to prevent the loss of tissue. The chambers were perfused against gravity with oxygenated Krebs-Ringer containing 1 mM physostigmine hemisulfate at a flow rate of 1 ml/min. […] The onset of superfusion was defined as time zero (t0). Starting at 30 min after t0, 10 min fractions of the effluent were collected.
Release of [^3H]acetylcholine was induced by superfusing tissues for 30 sec with 65 mM K^+-Krebs-Ringer solution (made by isomolar replacement of NaCl with KCl). Four potassium pulses were given respectively at 40 min (S1), 70 min (S2), 100 min (S3) and 130 min (S4) after t0. […] To permit construction of concentration-effect curves, concentrations of agents were increased 10 fold between each stimulus.
Following perfusion, the tissue was homogenized in 1 ml ethanol and aliquots of superfusates (0.4 ml) and tissue homogenates (0.04 ml) were added to 5 ml of Scintsafe PlusTM 50% (Fisher Scientific, Pittsburgh, Pa.) and radioactivity counted by liquid scintillation spectrometry. The total ^3H content in this procedure consisted mainly of [^3H]acetylcholine.
Tritium (^3H) efflux into the superfusate was calculated as the fraction of tritium content in the slices or synaptosomes at the onset of the respective collection period. For calculation of the stimulated tritium overflow, the estimated basal efflux (the average of the 10 min fractions immediately before and after each stimulation) was subtracted from the total tritium efflux during the 10 min fraction which began with the 30 sec K^+ pulse. This difference was then used to calculate the percent of K^+-evoked release of acetylcholine.
In order to quantify the in vitro effect of a drug on stimulated tritium outflow, the ratio of the fraction released by a given pulse, Sn, to that evoked by S1, was determined. Data presented below are expressed as the mean fractional tritium release ±S.E.M. Statistical differences between treatments were tested by the two-tailed Student's t test or the two factor ANOVA as appropriate. Individual differences in the dose-response curve was evaluated by the Newman-Keul multiple comparison.

[2] = Table II, formula (II) compounds, read-out: hGAL IC50
[3] = 10 μM + GAL, mean fractional tritium release

Row | Structure (SMILES) | IC50 [1, 2] [nM] | Acetycholine Secretion, Stimulated (% change) (Rat Galanin-1 Receptor; 1 μM + GAL) [%] | Acetycholine Secretion, Basal (% change) (Rat Galanin-1 Receptor; 1 μM + GAL) [%] | Acetycholine Secretion, Basal (% change) (Rat Galanin-1 Receptor; 10 μM + GAL) [%] | further results
1 | COc1cccc(C2=CS(=O)(=O)CCCS2(=O)=O)c1 [Cmpd 15] | 1100 |  |  |  | 
2 | O=S1(=O)C=C(c2cccc(F)c2)S(=O)(=O)CCC1 [Cmpd 16] | 1300 | −23.9 | −38.9 | −37 | Acetycholine Secretion, Stimulated (Rat Galanin-1 Receptor; 1 μM + GAL, mean fractional tritium release): 6.31; Acetycholine Secretion, Stimulated (Rat Galanin-1 Receptor; [3]): 8.27; Acetycholine Secretion, Basal (Rat Galanin-1 Receptor; [3]): 2.28
3 | O=S1(=O)C=C(c2ccc(I)cc2)S(=O)(=O)CCC1 [Cmpd 17] |  | −35.2 | −39.2 | −37 | Acetycholine Secretion, Stimulated (% change) (Rat Galanin-1 Receptor; 10 μM + GAL): −22.3%
4 | O=S1(=O)C=C(c2ccc(Br)cc2)S(=O)(=O)CC1 [Cmpd 2] |  |  |  |  | IC50 ([1]; Table I, formula (I) compounds, read-out: HGAL IC50): 1000 nM
5 | O=S1(=O)C=C(c2ccc(Cl)cc2)S(=O)(=O)CCC1 [Cmpd 21] | 1900 |  |  |  | 
